Source: patent publication US11420966B2 (ACLARIS THERAPEUTICS, INC., priority 2019, dated 2022)
pIC50: −log10 of the molar value.

Key:
JAK1 = JAK1 (Homo sapiens (Human), UniProt P23458); assay: JAK1 enzyme activity assay (Thermo Fisher SelectScreen, Z-lyte); format: biochemical; conditions: read-out: JAK1 Inhibition IC50
Procedure: (§1) JAK1, JAK2, JAK3, and Tyk-2 Enzyme Activity Assays
(§2) The inhibitory potency of candidate compounds of JAK1, JAK2, and Tyk-2 was done at Thermo Fisher Scientific in their Selectscreen using a Z-lyte assay. Following are the assay details for each enzyme.
JAK: The 2×JAK-enzyme/Tyr 06 mixture is prepared in 50 mM HEPES pH 6.5, 0.01% BRIJ-35, 10 mM MgCl2, 1 mM EGTA, 0.02% NaN3. The final 10 μL of the Kinase Reaction consists of 21.2-91.5 ng JAK and 2 M Tyr 06 in 50 mM HEPES pH 7.0, 0.01% BRIJ-35, 10 mM MgCl2, 1 mM EGTA, 0.01% NaN3. After the one hour Kinase Reaction incubation, 5 μL of a 1:128 dilution of Development Reagent is added.
(§3) Data reduction for JAK1, JAK2 and TYK2 is done the same, independent of the enzyme run. In summary, background signal is defined in the absence of enzyme and uninhibited signal is defined in the presence of vehicle (2% DMSO) alone. Compounds were evaluated in an 11 point dose-response ranging from […] to 0.34 nM. IC50 values of compounds are determined using a 4 parameter logistical fit of emission ratio as a function of the concentration of compound.

[1] = tested on: IL-2 stimulated STAT5 phosphorylation on Tyr694 (JAK1/3); assay: JAK1/3 cellular target modulation: IL-2 stimulated phospho-STAT5 in PBMC; format: cell-based; conditions: human PBMC, IL-2 25 ng/ml; read-out: IL2-STAT5 IC50
Text: (§4) JAK Cellular Target Modulation Assays
(§5) Target modulation was based upon the ability of a compound to inhibit JAK isoform specific phosphorylation of selected substrates. IL-2 stimulated STAT5 phosphorylation on Tyr694 was used to assess JAK1/3 compound selectivity. GM-CSF stimulated STAT5 phosphorylation on Tyr694 was used to assess JAK2 compound selectivity. IFNγ stimulated STAT1 phosphorylation on Tyr701 was used to assess JAK1/2 compound selectivity. IL-12 stimulated STAT4 phosphorylation on Tyr693 was used to assess JAK2/TYK2 compound selectivity. For all four assays, human PBMC from frozen stocks were thawed, pelleted, resuspended in complete media (90% RPMI, 10% heat inactivated FBS, 10 mM HEPES, 47 μM 2-ME, pen/strep) and placed in wells of a 96 well V-bottom plate at 200,000 per well in 120 μl complete media. Compounds were added as 15 μl per well of 10× working stock solutions in complete media with 1% DMSO (or medium with 1% DMSO for controls) and placed on a plate shaker in a 37° C. incubator with 5% CO2 for 1 hour with gentle shaking (setting of 3). Stimulation used the addition of soluble cytokines. For the JAK1/3 phospho-STAT5 assay, 15 μl of 10× working stock recombinant human IL-2 was added to a final concentration of 25 ng/ml. For the JAK2 phospho-STAT5 assay, 15 μl of 10× working stock recombinant human GM-CSF was added to a final concentration of 5 ng/ml. For the JAK1/2 phospho-STAT1 assay, 15 μl of 10× working stock of recombinant human IFNγ was added to a final concentration of 10 ng/ml. For the JAK2/TYK2 phospho-STAT4 assay, 15 μl of 10× working stock of recombinant human IL-12 was added to a final concentration of 1.7 ng/ml. Plates were then placed back on the plate shaker in the incubator for an additional 5, 5, 10, and 25 minutes respectively upon which the plates were removed from the incubator, sealed with a plate sealer and the cells pelleted at 400×g for 5 minutes. After pelleting, the media was removed by aspiration and the cells were lysed in assay specific cell lysis buffer. The levels of phospho-STATS were determined using a Phospho (Tyr694) STAT5a,b Whole Cell Lysate kit from Meso Scale Discovery. Levels of phospho-STAT1 were determined using a CST-PathScan Phospho-STAT1 (Tyr701) Sandwich ELISA kit. Levels of phospho-STAT4 were determined using a Phospho-STAT4 (Tyr693) Whole Cell Lysate kit from Meso Scale Discovery.

[2] = tested on: IFNγ stimulated STAT1 phosphorylation on Tyr701 (JAK1/2); assay: JAK1/2 cellular target modulation: IFNγ stimulated phospho-STAT1 in PBMC; format: cell-based; conditions: human PBMC, IFNγ 10 ng/ml; read-out: Infγ-STAT1 IC50
Text: as §4, §5

[3] = tested on: IL-12 stimulated STAT4 phosphorylation on Tyr693 (JAK2/TYK2); assay: JAK2/TYK2 cellular target modulation: IL-12 stimulated phospho-STAT4 in PBMC; format: cell-based; conditions: human PBMC, IL-12 1.7 ng/ml; read-out: IL12-STAT4 IC50
Text: as §4, §5

JAK3 (a.a. 781-1124) = JAK3 (a.a. 781-1124) (Homo sapiens (Human), UniProt P52333); assay: JAK3 enzyme activity assay (SRCtide phosphorylation, Caliper); format: biochemical; conditions: 1 uM ATP; read-out: JAK3 Inhibition IC50
Procedure: as §1
Kinase reactions were run in a 384-well Greiner plate with 2% final DMSO concentration under the buffer conditions of 20 mM HEPES, pH 7.5, 10 mM MgCl2, 0.01% BSA, and 0.0005% Tween-20. The kinase reaction components were 2.5 nM JAK3, 1 μM SRCtide peptide and 1 uM ATP. Examples were tested in dose-response starting at 2 M (11 concentrations, 3-fold serial dilution, duplicate reactions). The reactions were incubated at room temperature for 40 minutes, then stopped by adding a 1:1 volume of 30 mM EDTA in 20 mM HEPES, pH 7.5 (15 mM EDTA final). After the reaction was stopped, the phosphorylated and unphosphorylated peptides were separated and quantified using a Caliper LC3000/EZ-Reader system and HTS Well Analyzer Software (Caliper, A PerkinElmer Company, Hopkinton, Mass.). GraFit (Erithacus Software Ltd., Horley, U.K.) was used to calculate inhibitor potency by fitting dose-response data to the 4-parameter logistical IC50 equation.

Tyk-2 = Tyk-2 (Homo sapiens (Human), UniProt P29597); assay: Tyk-2 enzyme activity assay (Thermo Fisher SelectScreen, Z-lyte); format: biochemical; conditions: read-out: Tyk-2 Inhibition IC50
Procedure: as §1, §2
TYK2: The 2×TYK2/Tyr 03 mixture is prepared in 50 mM HEPES pH 6.5, 0.01% BRIJ-35, 10 mM MgCl2, 1 mM EGTA, 0.02% NaN3. The final 10 μL Kinase Reaction consists of 3.75-15 ng TYK2 and 2 M Tyr 03 in 50 mM HEPES pH 7.0, 0.01% BRIJ-35, 10 mM MgCl2, 1 mM EGTA, 0.01% NaN3. After the one hour KinaseReaction incubation, 5 μL of a 1:4096 dilution of Development Reagent A is added.
as §3

JAK2 = JAK2 (Homo sapiens (Human), UniProt O60674); assay: JAK2 enzyme activity assay (Thermo Fisher SelectScreen, Z-lyte); format: biochemical; conditions: read-out: JAK2 Inhibition IC50
Procedure: as §1, §2
JAK2: The 2×JAK2/Tyr 06 mixture is prepared in 50 mM HEPES pH 7.5, 0.01% BRIJ-35, 10 mM MgCl2, 1 mM EGTA. The final 10 μL Kinase Reaction consists of 0.12-0.5 ng JAK2 and 2 M Tyr 06 in 50 mM HEPES pH 7.5, 0.01% BRIJ-35, 10 mM MgCl2, 1 mM EGTA. After the one hour Kinase Reaction incubation, 5 μL of a 1:128 dilution of Development Reagent A is added.
as §3

JAK2, sequence (O60674 whole entry): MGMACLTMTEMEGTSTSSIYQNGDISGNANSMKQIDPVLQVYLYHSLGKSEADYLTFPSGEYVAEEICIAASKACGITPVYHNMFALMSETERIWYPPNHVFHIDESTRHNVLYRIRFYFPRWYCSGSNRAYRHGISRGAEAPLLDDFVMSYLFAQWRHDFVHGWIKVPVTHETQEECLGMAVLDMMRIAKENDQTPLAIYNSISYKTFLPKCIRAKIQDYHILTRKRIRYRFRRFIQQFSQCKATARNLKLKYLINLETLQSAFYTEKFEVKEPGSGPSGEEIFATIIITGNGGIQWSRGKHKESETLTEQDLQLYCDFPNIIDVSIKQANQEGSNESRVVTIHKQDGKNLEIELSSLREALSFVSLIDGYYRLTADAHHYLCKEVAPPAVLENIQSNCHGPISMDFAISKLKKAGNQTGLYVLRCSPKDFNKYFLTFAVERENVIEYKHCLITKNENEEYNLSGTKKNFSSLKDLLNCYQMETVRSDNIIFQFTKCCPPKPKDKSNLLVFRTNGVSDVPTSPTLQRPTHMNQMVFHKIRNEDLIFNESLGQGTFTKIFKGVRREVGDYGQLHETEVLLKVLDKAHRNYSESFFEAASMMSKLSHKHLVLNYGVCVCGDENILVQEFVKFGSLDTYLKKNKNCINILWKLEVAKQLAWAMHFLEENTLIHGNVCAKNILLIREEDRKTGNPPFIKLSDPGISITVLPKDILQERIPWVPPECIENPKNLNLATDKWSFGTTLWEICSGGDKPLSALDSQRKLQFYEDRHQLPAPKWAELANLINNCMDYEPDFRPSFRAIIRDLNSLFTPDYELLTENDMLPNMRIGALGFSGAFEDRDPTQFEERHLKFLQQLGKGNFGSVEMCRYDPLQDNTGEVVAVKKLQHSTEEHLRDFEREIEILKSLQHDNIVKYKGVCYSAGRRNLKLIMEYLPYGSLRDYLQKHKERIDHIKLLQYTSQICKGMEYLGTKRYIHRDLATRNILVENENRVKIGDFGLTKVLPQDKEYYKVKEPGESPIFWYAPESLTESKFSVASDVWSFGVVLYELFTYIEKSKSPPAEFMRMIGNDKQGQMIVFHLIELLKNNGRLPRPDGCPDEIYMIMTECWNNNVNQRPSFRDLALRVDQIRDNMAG
JAK3 (a.a. 781-1124), sequence (P52333 781-1124): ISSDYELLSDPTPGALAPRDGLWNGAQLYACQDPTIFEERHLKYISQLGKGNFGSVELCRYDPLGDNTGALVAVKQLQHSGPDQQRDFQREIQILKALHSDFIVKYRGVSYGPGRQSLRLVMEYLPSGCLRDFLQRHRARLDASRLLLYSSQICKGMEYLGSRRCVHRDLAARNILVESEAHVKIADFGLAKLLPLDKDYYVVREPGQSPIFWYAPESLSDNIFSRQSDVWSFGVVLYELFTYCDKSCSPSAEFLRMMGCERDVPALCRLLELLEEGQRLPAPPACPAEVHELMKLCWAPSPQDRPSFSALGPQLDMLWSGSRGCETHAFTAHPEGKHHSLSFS
JAK1, sequence (P23458 whole entry): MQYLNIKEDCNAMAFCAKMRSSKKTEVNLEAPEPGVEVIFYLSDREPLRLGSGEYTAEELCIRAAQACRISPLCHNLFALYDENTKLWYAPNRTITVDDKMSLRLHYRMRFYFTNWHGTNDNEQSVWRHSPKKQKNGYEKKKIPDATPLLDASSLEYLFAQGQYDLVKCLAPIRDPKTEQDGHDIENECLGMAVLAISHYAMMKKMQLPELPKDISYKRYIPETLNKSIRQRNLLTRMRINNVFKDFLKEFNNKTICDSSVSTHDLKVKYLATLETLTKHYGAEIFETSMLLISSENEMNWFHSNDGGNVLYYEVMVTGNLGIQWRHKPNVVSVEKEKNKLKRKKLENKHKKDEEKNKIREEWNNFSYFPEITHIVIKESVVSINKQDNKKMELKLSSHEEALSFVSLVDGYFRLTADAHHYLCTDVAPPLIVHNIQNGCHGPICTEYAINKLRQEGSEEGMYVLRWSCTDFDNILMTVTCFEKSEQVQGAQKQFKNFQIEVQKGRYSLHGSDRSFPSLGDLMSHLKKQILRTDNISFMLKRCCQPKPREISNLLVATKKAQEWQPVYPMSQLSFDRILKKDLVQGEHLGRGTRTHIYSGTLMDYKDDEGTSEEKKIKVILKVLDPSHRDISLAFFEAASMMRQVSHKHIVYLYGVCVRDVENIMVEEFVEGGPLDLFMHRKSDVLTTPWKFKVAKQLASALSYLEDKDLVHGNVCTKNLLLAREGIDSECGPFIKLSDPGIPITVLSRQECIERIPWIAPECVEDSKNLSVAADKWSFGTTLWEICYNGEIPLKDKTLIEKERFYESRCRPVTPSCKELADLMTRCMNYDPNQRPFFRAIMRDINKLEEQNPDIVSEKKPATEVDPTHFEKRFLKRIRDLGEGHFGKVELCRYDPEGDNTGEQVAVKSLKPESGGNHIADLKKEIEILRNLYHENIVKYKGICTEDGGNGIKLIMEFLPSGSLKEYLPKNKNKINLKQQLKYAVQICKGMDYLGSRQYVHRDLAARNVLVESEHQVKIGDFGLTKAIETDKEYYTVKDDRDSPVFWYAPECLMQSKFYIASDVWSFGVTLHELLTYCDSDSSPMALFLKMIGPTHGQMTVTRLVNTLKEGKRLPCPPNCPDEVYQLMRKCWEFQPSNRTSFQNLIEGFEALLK
Tyk-2, sequence (P29597 whole entry): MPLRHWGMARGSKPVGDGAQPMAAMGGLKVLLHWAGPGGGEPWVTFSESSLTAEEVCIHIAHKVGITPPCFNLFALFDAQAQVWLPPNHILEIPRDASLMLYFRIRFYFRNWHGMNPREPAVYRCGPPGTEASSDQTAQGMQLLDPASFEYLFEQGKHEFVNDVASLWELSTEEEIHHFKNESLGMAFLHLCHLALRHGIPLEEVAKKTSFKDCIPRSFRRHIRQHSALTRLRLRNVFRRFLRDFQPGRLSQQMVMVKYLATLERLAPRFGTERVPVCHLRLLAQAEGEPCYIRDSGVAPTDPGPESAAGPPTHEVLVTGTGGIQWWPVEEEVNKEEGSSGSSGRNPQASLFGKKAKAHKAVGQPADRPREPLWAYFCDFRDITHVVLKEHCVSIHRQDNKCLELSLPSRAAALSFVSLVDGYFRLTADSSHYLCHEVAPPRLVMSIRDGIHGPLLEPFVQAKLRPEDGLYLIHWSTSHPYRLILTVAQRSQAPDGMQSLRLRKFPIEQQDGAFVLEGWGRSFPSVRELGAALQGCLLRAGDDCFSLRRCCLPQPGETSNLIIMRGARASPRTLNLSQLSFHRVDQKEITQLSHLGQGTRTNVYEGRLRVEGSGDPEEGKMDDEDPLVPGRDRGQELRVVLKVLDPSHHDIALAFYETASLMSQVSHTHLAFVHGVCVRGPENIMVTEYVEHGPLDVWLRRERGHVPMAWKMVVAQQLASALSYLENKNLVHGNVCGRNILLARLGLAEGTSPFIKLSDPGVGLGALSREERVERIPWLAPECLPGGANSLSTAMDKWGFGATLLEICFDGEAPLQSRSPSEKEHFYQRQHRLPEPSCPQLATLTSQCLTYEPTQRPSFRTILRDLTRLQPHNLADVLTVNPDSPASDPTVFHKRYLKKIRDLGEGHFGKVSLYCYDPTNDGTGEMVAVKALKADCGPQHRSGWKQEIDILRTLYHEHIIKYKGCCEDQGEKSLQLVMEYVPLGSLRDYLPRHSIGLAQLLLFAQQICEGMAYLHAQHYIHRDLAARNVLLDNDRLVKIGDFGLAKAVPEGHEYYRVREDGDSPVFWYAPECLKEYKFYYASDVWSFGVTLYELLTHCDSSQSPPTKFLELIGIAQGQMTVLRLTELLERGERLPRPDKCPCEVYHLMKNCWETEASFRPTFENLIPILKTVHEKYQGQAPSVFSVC

| Compound | pIC50 (JAK1) | pIC50 [1] | pIC50 [2] | pIC50 [3] | pIC50 (JAK3 (a.a. 781-1124)) | pIC50 (Tyk-2) | pIC50 (JAK2) |
| --- | --- | --- | --- | --- | --- | --- | --- |
| Cc1cccc(-c2cnc3[nH]ccc3c2N[C@@H]2CCCN(C(=O)CC#N)C2)n1 [Example 20, (R)-3-(3-((5-(6-methylpyridin-2-yl)-1H-pyrrolo[2,3-b]pyridin-4-yl)amino)piperidin-1-yl)-3-oxopropanenitrile] | ≥ 8.00 | ≥ 7.00 | 6.00 to 7.00 | < 6.00 | 7.00 to 8.00 | 6.00 to 7.00 | 7.00 to 8.00 |
| Cc1cc(-c2cnc3[nH]ccc3c2N[C@@H]2CCCN(C(=O)CC#N)C2)[nH]n1 [Example 26, (R)-3-(3-((5-(3-methyl-1H-pyrazol-5-yl)-1H-pyrrolo[2,3-b]pyridin-4-yl)amino)piperidin-1-yl)-3-oxopropanenitrile] | ≥ 8.00 | ≥ 7.00 | 6.00 to 7.00 | < 6.00 | 7.00 to 8.00 | 7.00 to 8.00 | 7.00 to 8.00 |
| N#CCC(=O)N1CCC[C@@H](Nc2c(-c3ccsn3)cnc3[nH]ccc23)C1 [Example 41, (R)-3-(3-((5-(isothiazol-3-yl)-1H-pyrrolo[2,3-b]pyridin-4-yl)amino)piperidin-1-yl)-3-oxopropanenitrile] | ≥ 8.00 | ≥ 7.00 | 6.00 to 7.00 | 6.00 to 7.00 | ≥ 8.00 | ≥ 8.00 | ≥ 8.00 |
| CN(C)C(=O)c1coc(-c2cnc3[nH]ccc3c2N[C@@H]2CCCN(C(=O)CC#N)C2)n1 [Example 34, (R)-2-(4-((1-(2-cyanoacetyl)piperidin-3-yl)amino)-1H-pyrrolo[2,3-b]pyridin-5-yl)-N,N-dimethyl-oxazole-4-carboxamide] | ≥ 8.00 | 6.00 to 7.00 | 6.00 to 7.00 | < 6.00 | ≥ 8.00 | 7.00 to 8.00 | 7.00 to 8.00 |
| CNC(=O)c1coc(-c2cnc3[nH]ccc3c2N[C@@H]2CCCN(C(=O)CC#N)C2)n1 [Example 33, (R)-2-(4-((1-(2-cyanoacetyl)piperidin-3-yl)amino)-1H-pyrrolo[2,3-b]pyridin-5-yl)-N-methyloxazole-4-carboxamide] | ≥ 8.00 | ≥ 7.00 | 6.00 to 7.00 | < 6.00 | ≥ 8.00 | 7.00 to 8.00 | 7.00 to 8.00 |
| N#CCC(=O)N1CCC[C@@H](Nc2c(-c3ncon3)cnc3[nH]ccc23)C1 [Example 38, (R)-3-(3-((5-(1,2,4-oxadiazol-3-yl)-1H-pyrrolo[2,3-b]pyridin-4-yl)amino)piperidin-1-yl)-3-oxopropanenitrile] | 7.00 to 8.00 | 6.00 to 7.00 | < 6.00 | < 6.00 | 7.00 to 8.00 | 6.00 to 7.00 | 7.00 to 8.00 |
| Cc1nc(-c2cnc3[nH]ccc3c2N[C@@H]2CCCN(C(=O)CC#N)C2)no1 [Example 19, (R)-3-(3-((5-(5-methyl-1,2,4-oxadiazol-3-yl)-1H-pyrrolo[2,3-b]pyridin-4-yl)amino)piperidin-1-yl)-3-oxopropanenitrile] | 7.00 to 8.00 | 6.00 to 7.00 | < 6.00 | < 6.00 | 7.00 to 8.00 | 6.00 to 7.00 | 6.00 to 7.00 |

Results, then the compound that gave them:

| pIC50 (JAK1) | pIC50 [1] | pIC50 [2] | pIC50 [3] | pIC50 (JAK3 (a.a. 781-1124)) | pIC50 (Tyk-2) | pIC50 (JAK2) | Compound |
| --- | --- | --- | --- | --- | --- | --- | --- |
| ≥ 8.00 | 6.00 to 7.00 | 6.00 to 7.00 | < 6.00 | ≥ 8.00 | ≥ 8.00 | ≥ 8.00 | C[S+]([O-])c1cnc(-c2cnc3[nH]ccc3c2N[C@@H]2CCCN(C(=O)CC#N)C2)s1 (stereo partly drawn) [Example 45, 3-((3R)-3-((5-(5-(methylsulfinyl)thiazol-2-yl)-1H-pyrrolo[2,3-b]pyridin-4-yl)amino)piperidin-1-yl)-3-oxopropanenitrile] |
| ≥ 8.00 | ≥ 7.00 | 6.00 to 7.00 | < 6.00 | 7.00 to 8.00 | 7.00 to 8.00 | 7.00 to 8.00 | COc1nccc(-c2cnc3[nH]ccc3c2N[C@@H]2CCCN(C(=O)CC#N)C2)n1 [Example 43, (R)-3-(3-((5-(2-methoxypyrimidin-4-yl)-1H-pyrrolo[2,3-b]pyridin-4-yl)amino)piperidin-1-yl)-3-oxopropanenitrile] |
| ≥ 8.00 | ≥ 7.00 | 6.00 to 7.00 | < 6.00 | ≥ 8.00 | 7.00 to 8.00 | ≥ 8.00 | N#CCC(=O)N1CCC[C@@H](Nc2c(-c3ccn(CCO)n3)cnc3[nH]ccc23)C1 [Example 62, (R)-3-(3-((5-(1-(2-hydroxyethyl)-1H-pyrazol-3-yl)-1H-pyrrolo[2,3-b]pyridin-4-yl)amino)piperidin-1-yl)-3-oxopropanenitrile] |
| 7.00 to 8.00 | 6.00 to 7.00 | 6.00 to 7.00 | < 6.00 | ≥ 8.00 | 7.00 to 8.00 | 7.00 to 8.00 | C[C@H]1C[C@@H](Nc2c(-c3nccs3)cnc3[nH]ccc23)CN(CC2CC2(F)F)C1 (stereo partly drawn) [Example 67, N-((3R,5S)-1-((2,2-difluorocyclopropyl)methyl)-5-methylpiperidin-3-yl)-5-(thiazol-2-yl)-1H-pyrrolo[2,3-b]pyridin-4-amine] |
